According to ChEMBL document CHEMBL1145703, “Flavonol and chalcone ester glycosides from Bidens leucantha” (J Nat Prod, 1997):
≈ marks a conversion by molar mass, not a printed value. Calls of active or inactive are those of the source. The calls are words filed in the database; no cut-off is given here.

How the values were obtained:
[1] = system: Human immunodeficiency virus 1; assay: Antiviral activity against HIV1 MN infection in human C8166 cells after 2 days by syncitium-forming assay; format: functional, organism-based
[2] = system: Human immunodeficiency virus 1; assay: Antiviral activity against HIV1 MN infected in human C8166 cells assessed as reduction in Ag gp120 production by ELISA; format: functional, organism-based; conditions: Human immunodeficiency virus 1, MN
[3] = Selectivity index, ratio of EC50 for HIV1 MN infection in human C8166 cells to TC50 for human C8166 cells; format: functional
[4] = Cytotoxicity against human C8166 cells by XTT-formazan method; format: cell-based; conditions: read-out: TC50 (the source's name)
C8166 = assay: Cytotoxicity against human C8166 cells at 250 ug/ml by XTT-formazan method; format: cell-based

| SMILES | Activity [1] | EC50 [2] | Selectivity Index [3] | CC50 [4] | Activity (C8166) |
| --- | --- | --- | --- | --- | --- |
| COc1ccc(-c2oc3cc(O[C@@H]4O[C@H](CO[C@@H]5O[C@@H](C)[C@H](O)[C@@H](O)[C@H]5O)[C@@H](O)[C@H](O)[C@H]4O[C@@H]4O[C@H](CO)[C@@H](O)[C@H](O)[C@H]4O)cc(O)c3c(=O)c2OC)cc1O | inactive | – | – | – | – |
| COc1ccc(-c2oc3cc(O[C@@H]4O[C@H](CO[C@@H]5O[C@@H](C)[C@H](O)[C@@H](O)[C@H]5O)[C@@H](O)[C@H](O)[C@H]4O)cc(O)c3c(=O)c2OC)cc1O | inactive | – | – | – | – |
| COc1ccc(-c2oc3cc(O[C@@H]4O[C@H](CO[C@@H]5O[C@@H](C)[C@H](O)[C@@H](O)[C@H]5O[C@@H]5O[C@@H](C)[C@H](O)[C@@H](O)[C@H]5O)[C@@H](O)[C@H](O)[C@H]4O)cc(O)c3c(=O)c2OC)cc1O | inactive | – | – | – | – |
| O=C(/C=C/c1ccc(O)cc1)OC[C@H]1O[C@@H](Oc2ccc(C(=O)/C=C/c3ccc(O)cc3)c(O)c2O)[C@H](O)[C@@H](O)[C@@H]1O | – | 50 µg/mL (≈ 86.1 µM) | 12.5 | 250 µg/mL (≈ 431 µM) | – |
| CC(=O)OC[C@H]1O[C@@H](Oc2ccc(C(=O)/C=C/c3ccc(O)c(O)c3)c(O)c2O)[C@H](O)[C@@H](OC(C)=O)[C@@H]1OC(C)=O | – | 20 µg/mL (≈ 34.7 µM) | 12.5 | – | Non-toxic |
| COc1c(-c2ccc(O)c(O)c2)oc2cc(O[C@@H]3O[C@H](CO[C@@H]4O[C@@H](C)[C@H](O)[C@@H](O)[C@H]4O)[C@@H](O)[C@H](O)[C@H]3O)cc(O)c2c1=O | inactive | – | – | – | – |
| CC(=O)O[C@H]1[C@H](O)[C@@H](O)[C@H](Oc2ccc(C(=O)/C=C/c3ccc(O)c(O)c3)c(O)c2O)O[C@@H]1COC(=O)/C=C/c1ccc(O)cc1 | – | 10 µg/mL (≈ 15.7 µM) | >10 | 100 µg/mL (≈ 157 µM) | – |
